Results from patent US10905651B1, “Zeinmersome nanocarriers for drug delivery to the liver” (King Abdulaziz University, priority 2020, dated 2021).

Tests used:
[1] = test system: methotrexate-induced intestinal mucositis; conditions: pretreatment with 0.5, 1.0, or 5.0 mg/kg; cited from earlier work
AT2 receptors = target: T1, AT2 receptors (Homo sapiens, UniProt P50052); conditions: cited from earlier work
T1 sequence (P50052 1-363): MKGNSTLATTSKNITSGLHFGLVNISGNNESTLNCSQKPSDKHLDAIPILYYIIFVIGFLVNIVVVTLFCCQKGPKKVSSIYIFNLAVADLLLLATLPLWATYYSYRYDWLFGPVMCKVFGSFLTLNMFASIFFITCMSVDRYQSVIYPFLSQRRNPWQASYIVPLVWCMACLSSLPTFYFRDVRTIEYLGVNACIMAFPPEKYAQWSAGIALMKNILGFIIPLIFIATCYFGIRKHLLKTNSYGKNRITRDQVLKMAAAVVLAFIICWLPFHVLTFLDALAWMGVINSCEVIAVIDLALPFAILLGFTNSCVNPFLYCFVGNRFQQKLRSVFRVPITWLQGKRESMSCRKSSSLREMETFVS

[2] = test system: bile duct-ligated fibrotic rats; conditions: 1 mg/kg/day orally; cited from earlier work
[3] = test system: TAA-induced hepatic fibrosis rats; test: Histopathology of duodenal sections and detection of sprue-like enteropathy in TAA-induced hepatic fibrosis rats; format: in vivo, rat; conditions: two months
Description: (§1) Rats were given freshly prepared TAA (0.9% w/v in saline solution, 200 mg/kg, ip) twice weekly for eight weeks. A normal control (NC) group of rats (n=8) received injections of the vehicle twice weekly for eight weeks. The TAA-treated rats were randomly assigned to groups (n=8), including a test group for each dosage of a free drug (not encapsulated in ZMS), each dosage of zeinmersomes encapsulating the drug, and a positive control group (PC) having hepatic fibrosis but receiving a vehicle-only treatment instead of a drug treatment. Five groups of rats (n=8) were given freshly prepared TAA (0.9% w/v in saline solution, 200 mg/kg, ip) twice weekly for eight weeks and a normal control (NC) group received vehicle injections, as described in Example 4. The five TAA groups included a positive control group (PC, untreated) and four groups treated with low and high doses (2 and 4 mg/kg/day) of OM as raw drug (OL & OH, respectively) and the same low and high doses (2 and 4 mg/kg/day) of OM formulated as zeinmersomes (OLZMS & OHZMS, respectively). […] The plasma levels of ALT and AST and the homogenate levels of IL-6, reduced glutathione (GSH), TNF-α, malondialdehyde (MDA), and protein content were measured using ELISA kits (MyBioSource, Inc. CA, USA). In addition, the concentrations of olmesartan in plasma and liver homogenate were measured by HPLC/MS. […]

[4] = test system: TAA-induced hepatic fibrosis rats; test: Histopathology of hepatic sections in TAA-induced hepatic fibrosis rats; format: in vivo, rat; conditions: two months, H&E
Description: as §1

Compound: CCCc1nc(C(C)(C)O)c(C(=O)OCc2oc(=O)oc2C)n1Cc1ccc(-c2ccccc2-c2nnn[nH]2)cc1 [OM, (5-methyl-2-oxo-1,3-dioxol-4-yl)methyl 5-(2-hydroxypropan-2-yl)-2-propyl-3-[[4-[2-(2H-tetrazol-5-yl)phenyl]phenyl]methyl]imidazole-4-carboxylate]
- enteropathy (diarrhea, weight loss, decreased sucrose activity) [1]: caused enteropathy
- inflammatory infiltration, vascular congestion, ulcerations, hemorrhagic areas; myeloperoxidase, IL-1β and TNF-α levels [1]: decreased
- antagonistic effects on the AT2 receptors (AT2 receptors): almost no antagonistic effects
- liver hydroxyproline content, mRNA expression of collagen, α-smooth muscle actin, and plasma levels of TGF-β [2]: significantly reduced
- duodenal histopathology (TAA-induced duodenal changes) ([3]; high dose 4 mg/kg/day oral): mild improvement
- duodenal histopathology (TAA-induced duodenal changes) ([3]; low dose 2 mg/kg/day oral): swollen distorted villi with damaged desquamated surface epithelium
- liver histopathology (fibrosis, inflammatory infiltration, hepatocytic degeneration) ([4]; high dose 4 mg/kg/day oral): mild improvement
- liver histopathology (fibrosis, inflammatory infiltration, hepatocytic degeneration) ([4]; low dose 2 mg/kg/day oral): no improvement
